# Data reported in publication PMC8306578, “[^68Ga]Ga-DFO-c(RGDyK): Synthesis and Evaluation of Its Potential for Tumor Imaging in Mice” (International Journal of Molecular Sciences, 2021).
# Like-named read-outs stand apart in the source and are kept apart here.
# Assays:
# [1] = assay type: physicochemical; settings: pH 7.4
# Procedure: Aliquots of 50 μL were added to 450 μL PBS and 500 μL octanol, and the mixture was vigorously vortexed for 20 min at 1500 rpm. The aqueous and organic solvents were separated by centrifugation (2 min at 2000× g), and 50 μL aliquots of both layers were collected and measured in a gamma counter (PerkinElmer, Waltham, MA, USA). Log p values were calculated from the obtained data in Microsoft Office Excel 2010 (Microsoft, Redmond WA, USA) (mean of n = 6).
# U-87 MG cells = assay: Cell uptake assay in U-87 MG cells; assay type: cell-based, human; settings: 7 nM tracer, 500-fold excess (3.5 µM) inhibitor, 30-90 min, 37 °C
# Procedure: (§1) Human glioblastoma multiforme U-87 MG cells (ATCC, Manassas, VA, USA) were cultured in Dulbecco’s Modified Eagle Medium (Merck, Darmstadt, Germany) supplemented with 10% fetal bovine serum, 0.1 mM non-essential amino acids, and 1.0 mM sodium pyruvate at 37 °C in a 5% carbon dioxide humidified incubator. Human melanoma cell lines M21 (fluorescence-activated cell sorting selected clone, which stably express αvβ3 integrin; αvβ3 integrin-positive) and M21-L (αvβ3 integrin-negative) originated from prof. Cheresh, Departments of Immunology and Vascular Biology, The Scripps Research Institute, La Jolla, CA, USA and were a kind gift of prof. Decristoforo, Department of Nuclear Medicine, Medical University Innsbruck, Austria. Both M21 and M21-L cells were cultured in Dulbecco’s Modified Eagle Medium (Merck, Darmstadt, Germany) supplemented with 10% fetal bovine serum. All the cells were subcultured and used for experiments at a confluency of 70–90%. Cell uptake assays were performed in 24-well plates cell at cellular confluency of 70–90%. […] Afterwards, the 24-well plates were rinsed with PBS and the cells were lysed by 0.1 M NaOH and measured for radioactivity in the gamma counter. The uptake of [^68Ga]Ga-DFO-c(RGDyK) was calculated as the mean of the percentage of the applied dose ± standard deviation.
# M21 cells = assay: Cell uptake assay in M21 (αvβ3-positive) cells; assay type: cell-based, human; settings: 7 nM tracer, 500-fold excess (3.5 µM) inhibitor, 60 min, 37 °C
# Procedure: as §1
# [2] = mouse, in vivo
# Procedure: The animal studies were performed using female 8–10-week-old Balb/c and athymic Balb/c nude mice (Envigo, Horst, The Netherlands). The animals were acclimatized to laboratory conditions for 1 week prior to experimental use and housed in a specific-pathogen-free animal facility with free access to animal chow and water. During the experiments, general health and body weight of the animals were monitored. The number of animals was reduced as much as possible (n = 3 per group and time point) for all in vivo experiments. The tracer injection as well as small animal imaging was carried out under 2% isoflurane anesthesia (FORANE, Abbott Laboratories, Abbott Park, IL, USA) to minimize animal suffering and to prevent animal motion. […] The animals were sacrificed by cervical dislocation at 30 and 90 min post-injection (p.i.). Organs and tissues of interest (blood, spleen, pancreas, stomach, intestines, kidneys, liver, heart, lung, muscle, bone, and tumor) were collected, weighed, and measured in the gamma counter. The results were expressed as percentage of injected dose per gram organ (% ID/g).
# [3] = design: dose or concentration left out as unconfirmed; settings: mouse, in vivo
# Procedure: (§2) The animal studies were performed using female 8–10-week-old Balb/c and athymic Balb/c nude mice (Envigo, Horst, The Netherlands). The animals were acclimatized to laboratory conditions for 1 week prior to experimental use and housed in a specific-pathogen-free animal facility with free access to animal chow and water. During the experiments, general health and body weight of the animals were monitored. The number of animals was reduced as much as possible (n = 3 per group and time point) for all in vivo experiments. […]
# (§3) For animal tumor models, athymic Balb/c nude mice were subcutaneously injected in the right flank with 5 × 10^6 U-87 MG cells mixed with Matrigel Matrix (Corning, NY, USA) at a 1:1 ratio or in the right and left flank with 5 × 10^6 M21 and M21-L cells. Tumor growth was continuously monitored by caliperation. […]
# The animals were sacrificed by cervical dislocation at 30 and 90 min post-injection (p.i.). Organs and tissues of interest (blood, spleen, pancreas, stomach, intestines, kidneys, liver, heart, lung, muscle, bone, and tumor) were collected, weighed, and measured in the gamma counter. The results were expressed as percentage of injected dose per gram organ (% ID/g).
# U-87 MG tumor = assay: Static PET/CT imaging in U-87 MG tumor-bearing Balb/c nude mice; assay type: in vivo, mouse; settings: U-87 MG tumor mice, 30 and 90 min p.i.
# Procedure: as §2, §3
# (§4) PET/CT imaging of the experimental animals was performed with an Albira PET/SPECT/CT small animal imaging system (Bruker Biospin Corporation, Woodbridge, CT, USA). […] After reconstruction, the acquired data was viewed and analyzed with the appropriate software (PMOD software, PMOD Technologies Ltd., Zurich, Switzerland and VolView software, Kitware, Clifton Park, NY, USA).
# M21 tumor = assay: Static PET/CT imaging in M21 (αvβ3-positive) xenografted Balb/c nude mice; assay type: in vivo, mouse; settings: αvβ3 integrin-positive (M21) tumor tissue, 30 and 90 min p.i.
# Procedure: as §2, §3, §4
# M21-L tumor = assay: Static PET/CT imaging in M21-L (αvβ3-negative) xenografted Balb/c nude mice; assay type: in vivo, mouse; settings: αvβ3 integrin-negative (M21-L) tumor tissue, 30 and 90 min p.i.
# Procedure: as §2, §3, §4
smiles,measurement,setting,value
"CC(=O)N(O)CCCCCNC(=O)CCC(=O)N(O)CCCCCNC(=O)CCC(=O)N(O)CCCCCNC(=S)Nc1ccc(NC(=S)NCCCC[C@@H]2NC(=O)[C@@H](Cc3ccc(O)cc3)NC(=O)[C@H](CC(=O)O)NC(=O)CNC(=O)[C@H](CCCNC(=N)N)NC2=O)cc1 [[^68Ga]Ga-DFO-c(RGDyK), metal not drawn]",logP,[1],-2.01 ± 0.08
same,Blocking of cell uptake by excess cold NODAGA-c(RGDyK),U-87 MG cells,could be blocked with NODAGA-c(RGDyK) by about half
same,Blocking of cell uptake by excess cold NODAGA-c(RGDyK),M21 cells,could only be blocked for the αvβ3-positive cells (M21)
same,tissue uptake at 1.5 h,[2]; Activity concentration in intestines,1.99 ± 0.01 %ID/g
same,tissue uptake at 1.5 h,[2]; Activity concentration in kidneys,5.31 ± 0.12 %ID/g
same,tissue uptake at 1.5 h,[2]; Activity concentration in stomach,1.78 ± 0.05 %ID/g
same,tissue uptake at 0.5 h,[3],3.03 ± 0.62 %ID/g
same,tissue uptake at 1.5 h,[3],1.54 ± 0.56 %ID/g
same,PET/CT tumor visualization,U-87 MG tumor,clearly visualizing the tumor
same,PET/CT tumor uptake,M21 tumor,specific uptake of the radiotracer
same,PET/CT tumor uptake,M21-L tumor,no uptake was observed
